Results from PMC3552018 (Insect molecular biology, 2012).

Molecular target: T1, LUSH (Drosophila melanogaster, UniProt O02372)
T1 sequence (O02372 30-153): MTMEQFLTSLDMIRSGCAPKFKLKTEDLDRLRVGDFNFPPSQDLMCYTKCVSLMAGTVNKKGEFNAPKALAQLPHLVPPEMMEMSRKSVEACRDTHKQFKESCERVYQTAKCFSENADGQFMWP
Format: binding

Row | Compound | Kd [nM]
1 | CCC/C=C\C=C\CCCCCCCCCO [bombykol] | 215
2 | CCCCCC/C=C\CCCCCCCCCCOC(C)=O [cVA, 11-cis vaccenyl acetate] | 108
